Data taken from patent US11780839B2, “Compounds for treating Huntington's disease” (PTC THERAPEUTICS, INC., priority 2018, dated 2023).

Tested on: Endogenous Huntingtin Protein
Assay: Endogenous Huntingtin Protein Assay (ELISA-based Meso Scale Discovery electrochemiluminescence)
Type: cell-based
Conditions: MSD electrochemiluminescence, Table 1
How it was run: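 Huntingtin was captured overnight at 4 °C on plates coated with 1 μg/mL MW1 (polyQ-expanded) or MAB2166 antibody and BSA-blocked. Detection used a rabbit monoclonal and then a SULFO-TAG goat anti-rabbit antibody (0.25 μg/mL, 1 h each, room temperature). Signal was read by electrochemiluminescence.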

| IC50 [nM] | Structure (SMILES) |
| --- | --- |
| ≤ 100 | CC(C)(C)NC1CN(c2ncc(-c3ccc(-c4cn[nH]c4)cc3O)nn2)CC1F (stereo not drawn) [Cpd 278, 2-{3-[3-(tert-butylamino)-4-fluoropyrrolidin-1-yl]-1,2,4-triazin-6-yl}-5-(1H-pyrazol-4-yl)phenol] |
| 1000 to 3000 | CC(C)(C)N[C@@H]1CC[C@@H]2CN(c3ncc(-c4ccc(-c5cn[nH]c5)cc4O)nn3)C[C@@H]21 [Cpd 193, 2-{3-[(3aR,4R,6aS)-4-(tert-butylamino)hexahydrocyclopenta[c]pyrrol-2(1H)-yl]-1,2,4-triazin-6-yl}-5-(1H-pyrazol-4-yl)phenol] |
| ≤ 100 | COc1cc(-c2ccc(-c3cnc(N4CC5(CCN(C)CC5)C4)nn3)c(O)c2)ncn1 [Cpd 243, 5-(6-methoxypyrimidin-4-yl)-2-[3-(7-methyl-2,7-diazaspiro[3.5]nonan-2-yl)-1,2,4-triazin-6-yl]phenol] |
| > 500 | Cn1ccc(-c2ccc(-c3cnc(OC4CC(C)(C)NC(C)(C)C4)nn3)c(O)c2)n1 [Cpd 108, 5-(1-methyl-1H-pyrazol-3-yl)-2-{3-[(2,2,6,6-tetramethylpiperidin-4-yl)oxy]-1,2,4-triazin-6-yl}phenol] |
| ≤ 100 | CC(C)(C)N[C@@H]1CCN(c2ncc(-c3ccc(-c4c[nH]nc4F)cc3O)nn2)C1 [Cpd 379, 2-{3-[(3R)-3-(tert-butylamino)pyrrolidin-1-yl]-1,2,4-triazin-6-yl}-5-(3-fluoro-1H-pyrazol-4-yl)phenol] |
| 1000 to 3000 | CC(C)(C)NC1CCN(c2ncc(-c3ccc(-c4ncccn4)cc3O)nn2)C1 (stereo not drawn) [Cpd 209, 2-{3-[3-(tert-butylamino)pyrrolidin-l-yl]-1,2,4-triazin-6-yl}-5-(pyrimidin-2-yl)phenol] |
| ≤ 100 | CC1(C)CC(Nc2ncc(-c3ccc(-c4cn[nH]c4)cc3O)nn2)C(F)C(C)(C)N1 (stereo not drawn) [Cpd 126, 2-{3-[(3-fluoro-2,2,6,6-tetramethylpiperidin-4-yl)amino]-1,2,4-triazin-6-yl}-5-(1H-pyrazol-4-yl)phenol] |
| ≤ 100 | CC(C)CNC1CCN(c2ncc(-c3ccc(-c4cn[nH]c4)cc3O)nn2)C1 (stereo not drawn) [Cpd 297] |
| ≤ 100 | CN1CCC2(CC1)CN(c1ncc(-c3ccc(-n4nccn4)cc3O)nn1)C2 [Cpd 232, 2-[3-(7-methyl-2,7-diazaspiro[3.5]nonan-2-yl)-1,2,4-triazin-6-yl]-5-(2H-1,2,3-triazol-2-yl)phenol] |
| ≤ 100 | Cn1cc(-c2ccc(-c3cnc(N4CCC(C)(N)C4)nn3)c(O)c2)cn1 (stereo not drawn) [Cpd 389, 2-[3-(3-amino-3-methylpyrrolidin-1-yl)-1,2,4-triazin-6-yl]-5-(1-methyl-1H-pyrazol-4-yl)phenol] |
| ≤ 100 | Cn1cc(-c2ccc(-c3cnc(N4CC[C@H](NC5CCC5)C4)nn3)c(O)c2)cn1 [Cpd 407, 2-{3-[(3S)-3-(cyclobutylamino)pyrrolidin-1-yl]-1,2,4-triazin-6-yl}-5-(1-methyl-1H-pyrazol-4-yl)phenol] |
| ≤ 100 | Oc1cc(-c2c[nH]nc2F)ccc1-c1cnc(N2CC3(CCNCC3)C2)nn1 [Cpd 151, 2-[3-(2,7-diazaspiro[3.5]nonan-2-yl)-1,2,4-triazin-6-yl]-5-(3-fluoro-1H-pyrazol-4-yl)phenol] |
| > 500 | CN1CCC2(CC1)CN(c1ncc(-c3ccc(-n4cc(F)cn4)cc3O)nn1)C2 [Cpd 229, 5-(4-fluoro-1H-pyrazol-1-yl)-2-[3-(7-methyl-2,7-diazaspiro[3.5]nonan-2-yl)-1,2,4-triazin-6-yl]phenol] |
| 1000 to 3000 | Cn1ccc(-c2ccc(-c3cnc(N4CCC(NC(C)(C)C)C4)nn3)c(O)c2)n1 (stereo not drawn) [Cpd 175, 2-{3-[3-(tert-butylamino)pyrrolidin-1-yl]-1,2,4-triazin-6-yl}-5-(1-methyl-1H-pyrazol-3-yl)phenol] |
| 100 to 500 | CC(C)(C)NC1CCN(c2ncc(-c3ccc(-c4ncco4)cc3O)nn2)C1 (stereo not drawn) [Cpd 250, 2-{3-[3-(tert-butylamino)pyrrolidin-1-yl]-1,2,4-triazin-6-yl}-5-(1,3-oxazol-2-yl)phenol] |
| ≤ 100 | Oc1cc(-c2cn[nH]c2)ccc1-c1cnc(N2CCC(NC3CCC(F)(F)C3)C2)nn1 (stereo not drawn) [Cpd 409, 2-(3-{3-[(3,3-difluorocyclopentyl)amino]pyrrolidin-1-yl}-1,2,4-triazin-6-yl)-5-(1H-pyrazol-4-yl)phenol] |
| ≤ 100 | Oc1cc(-c2cn[nH]c2)ccc1-c1cnc(N2CC3CNCC3C2)nn1 (stereo not drawn) [Cpd 337, 2-[3-(hexahydropyrrolo[3,4-c]pyrrol-2(1H)-yl)-1,2,4-triazin-6-yl]-5-(1H-pyrazol-4-yl)phenol] |
| ≤ 100 | CC1(C)C[C@@H](Nc2ncc(-c3ccc(-c4cn[nH]c4)cc3O)nn2)[C@@H](F)C(C)(C)N1 [Cpd 323, 2-(3-{[(3R,4R)-3-fluoro-2,2,6,6-tetramethylpiperidin-4-yl]amino}-1,2,4-triazin-6-yl)-5-(1H-pyrazol-4-yl)phenol] |
| ≤ 100 | [2H]C([2H])([2H])n1cc(-c2ccc(-c3cnc(N[C@H]4CC(C)(C)NC(C)(C)[C@H]4F)nn3)c(O)c2)cn1 [Cpd 377, 2-(3-{[(3S,4S)-3-fluoro-2,2,6,6-tetramethylpiperidin-4-yl]amino}-1,2,4-triazin-6-yl)-5-[1-(^2H3)methyl-1H-pyrazol-4-yl]phenol] |
| 100 to 500 | Cn1cnc(-c2ccc(-c3cnc(N4CCC(NC(C)(C)C)C4)nn3)c(O)c2)cc1=O (stereo not drawn) [Cpd 216, 6-(4-{3-[3-(tert-butylamino)pyrrolidin-1-yl]-1,2,4-triazin-6-yl}-3-hydroxyphenyl)-3-methylpyrimidin-4(3H)-one] |
| ≤ 100 | CNc1cc(-c2ccc(-c3cnc(N4CCC(NC)C4)nn3)c(O)c2)ncn1 (stereo not drawn) [Cpd 380, 5-[6-(methylamino)pyrimidin-4-yl]-2-{3-[3-(methylamino)pyrrolidin-1-yl]-1,2,4-triazin-6-yl}phenol] |
| ≤ 100 | CCC(C)(C)NC1CCN(c2ncc(-c3ccc(-c4cn[nH]c4)cc3O)nn2)C1 (stereo not drawn) [Cpd 154, 2-(3-{3-[(2-methylbutan-2-yl)amino]pyrrolidin-1-yl}-1,2,4-triazin-6-yl)-5-(1H-pyrazol-4-yl)phenol] |
| ≤ 100 | CC(C)N[C@H]1CCN(c2ncc(-c3ccc(-c4cn[nH]c4)cc3O)nn2)C1 [Cpd 347, 2-(3-{(3S)-3-[(propan-2-yl)amino]pyrrolidin-1-yl}-1,2,4-triazin-6-yl)-5-(1H-pyrazol-4-yl)phenol] |
| ≤ 100 | CC1(C)CC(Nc2cnc(-c3ccc(-c4cn[nH]c4)cc3O)nn2)C(F)C(C)(C)N1 (stereo not drawn) [Cpd 423, 2-{6-[(3-fluoro-2,2,6,6-tetramethylpiperidin-4-yl)amino]-1,2,4-triazin-3-yl}-5-(1H-pyrazol-4-yl)phenol] |

| Structure (SMILES) | IC50 [nM] |
| --- | --- |
| Cc1cc(-c2ccc(-c3cnc(N(C)C4CC(C)(C)NC(C)(C)C4)nn3)c(O)c2)ccn1 [Cpd 9, 5-(2-methylpyridin-4-yl)-2-{3-[methyl(2,2,6,6-tetramethylpiperidin-4-yl)amino]-1,2,4-triazin-6-yl}phenol] | ≤ 100 |
| CN(c1ncc(-c2ccc(-c3cc(F)c4[nH]ncc4c3)cc2O)nn1)C1CC(C)(C)NC(C)(C)C1 [Cpd 383, 5-(7-fluoro-1H-indazol-5-yl)-2-{3-[methyl(2,2,6,6-tetramethylpiperidin-4-yl)amino]-1,2,4-triazin-6-yl}phenol] | ≤ 100 |
| CN(c1ncc(-c2ccc(-n3cc(F)cn3)cc2O)nn1)C1CC(C)(C)NC(C)(C)C1 [Cpd 93, 5-(4-fluoro-1H-pyrazol-1-yl)-2-{3-[methyl(2,2,6,6-tetramethylpiperidin-4-yl)amino]-1,2,4-triazin-6-yl}phenol] | ≤ 100 |
| CN(c1ncc(-c2ccc(-c3cnn(C)c(=O)c3)cc2O)nn1)C1CC(C)(C)NC(C)(C)C1 [Cpd 147, 5-(3-hydroxy-4-{3-[methyl(2,2,6,6-tetramethylpiperidin-4-yl)amino]-1,2,4-triazin-6-yl}phenyl)-2-methylpyridazin-3(2H)-one] | ≤ 100 |
| CN(c1ncc(-c2ccc(-c3ccnc(O)c3)cc2O)nn1)C1CC(C)(C)NC(C)(C)C1 [Cpd 5, 4-(3-hydroxy-4-{3-[methyl(2,2,6,6-tetramethylpiperidin-4-yl)amino}-1,2,4-triazin-6-yl}phenyl)pyridin-2-ol] | ≤ 100 |
| CN(c1ncc(-c2ccc(-n3cccn3)cc2O)nn1)C1CC(C)(C)NC(C)(C)C1 [Cpd 17, 2-{3-[methyl(2,2,6,6-tetramethylpiperidin-4-yl)amino]-1,2,4-triazin-6-yl}-5-(1H-pyrazol-1-yl)phenol] | 100 to 500 |
| CN(c1ncc(-c2ccc(-c3ccc4c(cnn4C)n3)cc2O)nn1)C1CC(C)(C)NC(C)(C)C1 [Cpd 198, 5-(1-methyl-1H-pyrazolo[4,3-b]pyridin-5-yl)-2-{3-[methyl(2,2,6,6-tetramethylpiperidin-4-yl)amino]-1,2,4-triazin-6-yl}phenol] | ≤ 100 |
| CN(c1cnc(-c2ccc(-c3cccnc3)cc2O)nn1)C1CC(C)(C)NC(C)(C)C1 [Cpd 384, 2-{6-[methyl(2,2,6,6-tetramethylpiperidin-4-yl)amino]-1,2,4-triazin-3-yl}-5-(pyridin-3-yl)phenol] | ≤ 100 |
| CN(c1ncc(-c2ccc(-c3ccccn3)cc2O)nn1)C1CC(C)(C)NC(C)(C)C1 [Cpd 71, 2-{3-[methyl(2,2,6,6-tetramethylpiperidin-4-yl)amino]-1,2,4-triazin-6-yl}-5-(pyridin-2-yl)phenol] | ≤ 100 |
| CN(c1ncc(-c2ccc(-c3cccs3)cc2O)nn1)C1CC(C)(C)NC(C)(C)C1 [Cpd 53, 2-{3-[methyl(2,2,6,6-tetramethylpiperidin-4-yl)amino]-1,2,4-triazin-6-yl}-5-(thiophen-2-yl)phenol] | 100 to 500 |
| CN(c1ncc(-c2ccc(-c3ccc4ncccc4c3)cc2O)nn1)C1CC(C)(C)NC(C)(C)C1 [Cpd 185, 2-{3-[methyl(2,2,6,6-tetramethylpiperidin-4-yl)amino]-1,2,4-triazin-6-yl}-5-(quinolin-6-yl)phenol] | ≤ 100 |
| CN(c1ncc(-c2ccc(-c3ccc4c(cnn4C)c3)cc2O)nn1)C1CC(C)(C)NC(C)(C)C1 [Cpd 177, 5-(1-methyl-1H-indazol-5-yl)-2-{3-[methyl(2,2,6,6-tetramethylpiperidin-4-yl)amino]-1,2,4-triazin-6-yl}phenol] | ≤ 100 |
